# Several values for one entry are separate records, joined by “and”; a condition that tells them apart may be missing. Identical values can stand only once. Like-named read-outs stand apart in the source and are kept apart here.
# Experiments:
# [1] = biological target: T1, human serotonin 5-HT2c receptor (Homo sapiens, UniProt P28335); experiment: Human 5-HT2C receptor radioligand binding assay (agonist site, [125I]DOI); settings: 5-HT2c agonist site; transfected CHO cell membranes; 0.2 nM [125I](±)DOI
# T1 construct: expressed in transfected cells; host or cells: CHO cells (membrane homogenates)
# T1 sequence (P28335 33-458): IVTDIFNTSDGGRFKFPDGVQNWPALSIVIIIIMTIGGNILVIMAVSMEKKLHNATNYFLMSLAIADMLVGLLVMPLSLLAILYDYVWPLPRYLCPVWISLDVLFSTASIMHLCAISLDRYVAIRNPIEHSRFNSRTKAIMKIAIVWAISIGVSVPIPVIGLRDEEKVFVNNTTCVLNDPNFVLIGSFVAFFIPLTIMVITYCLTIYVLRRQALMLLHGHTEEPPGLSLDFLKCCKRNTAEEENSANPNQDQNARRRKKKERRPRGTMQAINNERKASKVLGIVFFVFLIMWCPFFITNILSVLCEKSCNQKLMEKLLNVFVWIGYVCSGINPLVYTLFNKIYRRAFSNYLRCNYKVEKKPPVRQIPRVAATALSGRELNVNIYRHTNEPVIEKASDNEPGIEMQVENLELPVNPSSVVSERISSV
# Experimental: (i) Human 5-HT2C Receptor Radioligand Binding Assay
# Affinity of compounds for the agonist site of the […], receptor in transfected CHO cells was determined in a radioligand binding assay essentially as described by Bryant, H. U., et al., Life Sciences (1996) 59(15), 1259-1268.
# 5HT2B receptors = biological target: T2, 5HT2B receptors (Homo sapiens, UniProt P41595); experiment: Human 5-HT2B functional high throughput screening assay in CHO-K1 cells (calcium flux); format: cell-based; settings: for EC50: CHO-K1 cells, calcium flux
# T2 construct: expressed in transfected cells; host or cells: CHO-K1 cells
# T2 sequence (P41595 whole entry): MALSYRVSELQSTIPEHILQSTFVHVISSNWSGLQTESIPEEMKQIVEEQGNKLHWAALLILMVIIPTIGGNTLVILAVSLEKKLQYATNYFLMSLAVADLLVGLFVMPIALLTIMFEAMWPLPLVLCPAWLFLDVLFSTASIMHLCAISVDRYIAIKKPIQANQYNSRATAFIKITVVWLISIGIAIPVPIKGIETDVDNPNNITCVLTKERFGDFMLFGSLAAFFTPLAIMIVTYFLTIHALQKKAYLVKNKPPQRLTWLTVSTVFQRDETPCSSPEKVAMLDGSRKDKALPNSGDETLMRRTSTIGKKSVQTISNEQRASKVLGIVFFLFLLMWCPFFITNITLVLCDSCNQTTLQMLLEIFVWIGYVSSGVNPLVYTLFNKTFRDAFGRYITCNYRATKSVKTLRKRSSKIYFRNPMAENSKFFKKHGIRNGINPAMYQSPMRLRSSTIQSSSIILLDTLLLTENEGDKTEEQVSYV
# Outline: (§1)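 FLIPR calcium readout, ex 480/em 530 nm, 25 °C, 3 min post-addition; agonist response normalized to serotonin, 4-parameter fit → EC50, Emax (% serotonin). Cells: frozen CHO-K1 stable lines, serum-free overnight, Ca4 dye + 2.5 mM probenecid, 60 min RT dark.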
# 5HT2C receptors [2] = biological target: T3, 5HT2C receptors (Homo sapiens, UniProt P28335); experiment: Human 5-HT2C functional assay in CHO-K1 cells (96-well, calcium, FLIPR); format: cell-based; design: expressed in transfected cells; settings: 5-HT2c agonist activity, CHO-K1 cells stably transfected
# T3 sequence (P28335 33-458): T1 sequence (P28335 33-458)
# Experimental: (iv) Human 5-HT2C Functional Assay in CHO-K1 Cells
# Functional activity was determined by testing the effect of the compounds on intracellular calcium levels in CHO-K1 cells stably transfected with the human 5-HT2C receptor. Cells were seeded into 96-well plates at 60,000 cells/well and grown overnight in tissue culture medium (UltraCHO™ (Lonza), containing 1% dFCS, 250 μg/mL Zeocin, 400 μg/mL Geneticin) at 37° C. and 5% CO2. Growth medium was replaced by medium without dFCS for overnight incubation. Cells were loaded with a fluorescent calcium-sensitive dye in the presence of probenicid according to the manufacturer's protocol (FLIPR Ca4 Assay kit, Molecular Devices). Serial compound dilutions (final concentrations 10^−10 to 10^−5 M) were added to the cells and the maximum calcium response was determined using a FLIPR instrument (Molecular Devices). Concentration-response curves were fitted using a four-parameter logistic equation (GraphPad Prism). The concentration at which the compound exerts half its maximal effect is named the ‘effective concentration 50’ or ‘EC50’ and is listed in Table 5.
# 5HT2C receptors [3] = biological target: T3, 5HT2C receptors; experiment: Human 5-HT2C functional high throughput screening assay in CHO-K1 cells (calcium flux); format: cell-based; design: expressed in transfected cells; host or cells: CHO-K1 cells; settings: for Emax: 5-HT2C, maximum functional response as percentage relative to the effect of serotonin; for EC50: CHO-K1 cells, calcium flux
# Outline: as §1
# 5HT2C receptors [4] = biological target: T3, 5HT2C receptors; experiment: Human 5-HT2C functional assay in 1321N1 cells (intracellular calcium, FLIPR); format: cell-based; design: expressed in transfected cells; host or cells: 1321N1 cells; settings: 5-HT2c agonist activity, maximum calcium response
# Outline: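 1321N1 cells stably expressing human 5-HT2C were serum-starved overnight and loaded with Fluo-4 AM and 1% probenecid. Compounds (10^−10 to 10^−5 M) were tested alone or with 10^−9 M serotonin, and peak calcium was read by FLIPR. EC50 from four-parameter logistic fit.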
# [5] = 5-HT2B, maximum functional response as percentage relative to the effect of serotonin
# [6] = 5-HT2B agonist activity, read-out: EC50
# [7] = 5-HT2C agonist activity, read-out: EC50
smiles,measurement,setting,value
"O=C1NC[C@@H]2CNC[C@H]2c2cccc(F)c21 (single isomer, unassigned) [Example 62, Trans-7-fluoro-1,2,3,3a,4,5-hexahydrobenzo[e]pyrrolo[3,4-c]azepin-6(10bH)-one]",Ki,[1],8.2 nM
same,Emax,5HT2B receptors; [5],80%
same,EC50,"5HT2B receptors; EC50, 5-HT2B agonist activity",700 nM
same,EC50,5HT2C receptors [2],0.3 nM
same,Emax,5HT2C receptors [3],>120%
same,EC50,"5HT2C receptors [3]; EC50, 5-HT2C agonist activity",1.2 nM
"O=C1NC[C@@H]2CNC[C@H]2c2cc(F)ccc21 (relative stereo) [Example 64, Trans-9-fluoro-1,2,3,3a,4,5-hexahydrobenzo[c]pyrrolo[3,4-e]azepin-6(10bH)-one]",Ki,[1],1000 nM
same,EC50,5HT2C receptors [2],17 nM
"O=C1NC[C@@H]2CN(Cc3ccccc3)C[C@H]2c2cc(F)ccc21 (relative stereo) [Example 63, Trans-2-benzyl-9-fluoro-1,2,3,3a,4,5-hexahydrobenzo[c]pyrrolo[3,4-e]azepin-6(10bH)-one]",Ki,[1],140 nM
same,EC50,5HT2B receptors; [6],> 10000 nM
same,Emax,5HT2B receptors; [5],inactive
same,EC50,5HT2C receptors [2],145 nM
same,EC50,5HT2C receptors [3]; [7],200 nM
same,Emax,"5HT2C receptors [3]; CHO-K1, read-out: Emax",120%
"c1ccc(CN2C[C@@H]3CCOc4ccccc4[C@H]3C2)cc1 (relative stereo) [Example 93, Trans-2-benzyl-2,3,3a,4,5,10b-hexahydro-1H-[1]benzoxepino[4,5-c]pyrrole]",EC50,5HT2B receptors; [6],> 10000 nM
same,Emax,5HT2B receptors; [5],inactive
same,EC50,5HT2C receptors [2],4.4 nM
same,EC50,5HT2C receptors [3]; [7],100 nM
same,Emax,"5HT2C receptors [3]; CHO-K1, read-out: Emax",> 120%
"CN1C[C@H]2CNC(=O)c3ccc(F)cc3[C@@H]2C1 (relative stereo) [Example 90, Trans-9-fluoro-2-methyl-1,2,3,3a,4,5-hexahydrobenzo[e]pyrrolo[3,4-c]azepin-6(10bH)-one]",Emax,5HT2B receptors; [5],inactive
same,EC50,"5HT2B receptors; EC50, 5-HT2B agonist activity",> 10000 nM
same,EC50,5HT2C receptors [2],14.5 nM
same,Emax,5HT2C receptors [3]; CHO-K1,85%
same,EC50,"5HT2C receptors [3]; EC50, 5-HT2C agonist activity",300 nM
"c1ccc2c(c1)OCC[C@H]1CNC[C@@H]21 (relative stereo) [Example 96, Cis-2,3,3a,4,5,10b-hexahydro-1H-[1]benzoxepino[4,5-c]pyrrole]",Ki,[1],380 nM
same,Emax,5HT2B receptors; CHO-K1,50%
same,EC50,"5HT2B receptors; EC50, 5-HT2B agonist activity",1000 nM
same,EC50,5HT2C receptors [2],36.9 nM
same,Emax,5HT2C receptors [3]; CHO-K1,120%
same,EC50,"5HT2C receptors [3]; EC50, 5-HT2C agonist activity",200 nM
"CN1C[C@H]2CNC(=O)c3cc(-c4ccccc4)ccc3[C@@H]2C1 (relative stereo) [Example 86, Trans-2-methyl-8-phenyl-1,2,3,3a,4,5-hexahydrobenzo[e]pyrrolo[3,4-c]azepin-6(10bH)-one]",EC50,5HT2B receptors; [6],> 10000 nM
same,Emax,5HT2B receptors; [5],inactive
same,EC50,5HT2C receptors [2],3.7 nM
same,EC50,5HT2C receptors [3]; [7],7 nM
same,Emax,"5HT2C receptors [3]; CHO-K1, read-out: Emax",110%
"CN1C[C@H]2CNC(=O)c3cc(F)ccc3[C@@H]2C1 (relative stereo) [Example 91, Trans-8-fluoro-2-methyl-1,2,3,3a,4,5-hexahydrobenzo[e]pyrrolo[3,4-c]azepin-6(10bH)-one]",Emax,5HT2B receptors; CHO-K1,25%
same,EC50,"5HT2B receptors; EC50, 5-HT2B agonist activity",3000 nM
same,EC50,5HT2C receptors [2],1.5 nM
same,Emax,5HT2C receptors [3]; CHO-K1,> 120%
same,EC50,"5HT2C receptors [3]; EC50, 5-HT2C agonist activity",20 nM
"O=C1NC[C@@H]2CNC[C@H]2c2c(F)cccc21 (relative stereo) [Example 67, Trans-10-fluoro-1,2,3,3a,4,5-hexahydrobenzo[c]pyrrolo[3,4-e]azepin-6(10bH)-one]",Ki,[1],43 nM
same,Emax,5HT2B receptors; CHO-K1,110%
same,EC50,"5HT2B receptors; EC50, 5-HT2B agonist activity",1000 nM and > 10000 nM
same,EC50,5HT2C receptors [2],2.5 nM
same,EC50,5HT2C receptors [4],6.55 nM
same,Emax,5HT2C receptors [3]; CHO-K1,> 120%
same,EC50,"5HT2C receptors [3]; EC50, 5-HT2C agonist activity",5 nM
"Clc1ccc2c(c1)[C@H]1CNC[C@@H]1CCO2 (relative stereo) [Example 95, Trans-9-chloro-2,3,3a,4,5,10b-hexahydro-1H-[1]benzoxepino[4,5-c]pyrrole]",Emax,5HT2B receptors; CHO-K1,35%
same,EC50,5HT2C receptors [2],1.7 nM
same,Emax,5HT2C receptors [3]; CHO-K1,> 120%
"CN1C[C@H]2CNC(=O)c3cc(Cl)ccc3[C@@H]2C1 (relative stereo) [Example 53, Trans-8-chloro-2-methyl-1,2,3,3a,4,5-hexahydrobenzo[e]pyrrolo[3,4-c]azepin-6(10bH)-one]",Ki,[1],8.1 nM
same,Emax,5HT2B receptors; [5],inactive
same,EC50,"5HT2B receptors; EC50, 5-HT2B agonist activity",> 10000 nM
same,EC50,5HT2C receptors [2],2.93 nM
same,Emax,5HT2C receptors [3]; CHO-K1,100%
same,EC50,"5HT2C receptors [3]; EC50, 5-HT2C agonist activity",20 nM
"c1ccc2c(c1)OCC[C@H]1CNC[C@H]21 (relative stereo) [Example 94, Trans-2,3,3a,4,5,10b-hexahydro-1H-[1]benzoxepino[4,5-c]pyrrole]",Emax,5HT2B receptors; CHO-K1,45%
same,EC50,"5HT2B receptors; EC50, 5-HT2B agonist activity",500 nM
same,EC50,5HT2C receptors [2],124 nM
same,Emax,5HT2C receptors [3]; CHO-K1,> 120%
same,EC50,"5HT2C receptors [3]; EC50, 5-HT2C agonist activity",30 nM

# From patent US8846951B2 (AbbVie Inc., priority 2009, dated 2014)
